Test results reported in patent US6491922B1, “Methods and compounds for treating autoimmune and vascular disease” (Cornell Research Foundation, Inc., priority 1996, dated 2002).

How the values were obtained:
endothelial cells [1] = experiment: Endothelial adhesion to monocytes (MM6) assay; conditions: for inhibition of endotoxin-mediated endothelial adhesion to monocytes by LPG fragments: fragments 1-10 μM (2 μM, 1 h in FIG. 21), endotoxin 10 ng/ml 4 h
Protocol: Endothelial cell were isolated from human umbilical veins by an established method as described. […] In all experiments, 2-4 passages of subcultured endothelial cells were used and were grown on fibronectin-precoated 96-well plates for 2-3 days prior to use.
On the day of the experiment, endothelial cells were treated with endotoxin (E. coli, J5, 10 ng/ml) for 4 h. MM6 (1×10^5 cells) were subsequently added to the endotoxin-stimulated endothelial cells. Monocyte adhesion was performed for 20 min at 37° C. Unbound MM6 cells were removed by washing (3×). Adhesion of MM6 onto endothelium was quantitated by counting the bound MM6 cells under a microscope. […] The values of triplicates were averaged, and variations between triplicates were <5%. […] For experiments to examine if LPG could inhibit endotoxin-mediated monocyte adhesion, the endothelial cells were first preincubated with LPG (2 μM) for 1-2 h at 37° C. prior to the addition of endotoxin.

[2] = test system: human umbilical vein endothelial cells; experiment: Competition for LPG binding by LPG fragments (FACS); conditions: for competition with intact LPG for binding to endothelial cells: fragment 10 μM prior to intact LPG 1 μM; for Percent Inhibition: pretreatment with fragment 10 μM 15 min before intact LPG 1 μM, 15 min, 37° C., means ± SE of 3 experiments
Protocol: To address whether the lyso-PI and core-PI fragments may mediate cell binding, an indirect approach was used. Endothelial cells (10^6/ml) obtained by mild collagenase treatment were first incubated with either lyso-PI or core-PI (10 μM, 15 min 37° C.) prior to the addition of intact LPG (1 μM, 15 min 37° C.); PGM and PG (10 μM, 15 min 37° C.) were used as controls. Cells were washed, after incubation with anti-LPG mAb as described above (Indirect Immunofluorescence) and subjected to FACS analysis by binding of the intact LPG.

endothelial cells [3] = experiment: ^3H-lyso-PI binding to endothelial cells; parameters: species or system human; conditions: 1 μM, 45 min, 25° C.; 10^6 cells per ml
Protocol: To evaluate whether lyso-PI may directly bind to endothelial cells, endothelial cells (10^6 per ml) were incubated with ^3H-lyso-PI (1 μM [specific activity, ˜10,000 cpm/nmole], 45 min, 25° C.). As a control, endothelial cells were pretreated with LPG (20 μM, 15 min, 25° C.) before the incubation with ^3H-lyso-PI. Following incubation, the cell suspension was layed onto silicone oil (Silicones FC-50, General Electric, Waterford, N.Y.) and cell-bound ^3H-lyso-PI was separated from free-^3H-lyso-PI by centrifugation (10,000 g, 10 min, room temperature). The amount of ^3H-lyso-PI in the cell pellet and in the supernatant were solubilized in Ecoscint (National Diagnostics, Highland Park, N.J.) and quantitated by a β-emission counter (Beckman Instruments, Palo Alto, Calif.).

Substance: lyso-alkyl-phosphatidylinositol [lyso-PI]
- inhibition of endotoxin-mediated endothelial adhesion to monocytes by LPG fragments (endothelial cells [1]): did not inhibit
- competition with intact LPG for binding to endothelial cells [2]: ~30%
- Percent Inhibition [2]: 29.9 ± 6.0%

Substance: ^3H-Lyso-alkyl-PI [^3H-lyso-PI, reference compound]
- ^3H-lyso-PI bound, of the total input ^3H-lyso-PI (endothelial cells [3]): 32.2±3.1%

Substance: phosphosaccharide core-lyso-alkyl-phosphatidylinositol [core-PI]
- inhibitory effect of co-addition of fragments (endothelial cells [1]; co-addition of PG (2 μM) and core-PI (2 μM)): No additive inhibitory effect
- inhibition of endotoxin-mediated endothelial adhesion to monocytes by LPG fragments (endothelial cells [1]): did not inhibit
- competition with intact LPG for binding to endothelial cells [2]: ~30%
- Percent Inhibition [2]: 32.0 ± 5.0%
